We go through five compounds from US9145351B2, “Azole derivatives, methods for producing the same, intermediate thereof, agro-horticultural agents” (KUREHA CORPORATION, priority 2009, dated 2015).

Read-outs that look alike come from different tables or passages of the source. Where only a bound is given, the exact number is not on record here.

In general, inhibition refers to the drop in the measured response relative to a control, in per cent.

Type in all cases: cell-based
The test system of one experiment is Phaeosphaeria nodorum. Briefly: Plate medium fungicidal assay, wheat Septoria nodorum blotch P.n (Experimental Example 5). The note with it: Parastagonospora nodorum. How it is done: In this Experimental Example, the fungicidal effects of the inventive compounds on various phytopathogenic fungi for plants and hazardous microorganism for industrial materials were examined by the methods described below. Each inventive compound was dissolved in 2 ml of dimethyl sulfoxide. 0.6 ml of this solution was added to 60 nil of a PDA medium (potato dextrose agar medium) at about 60 degrees C., which was mixed thoroughly in a 100-ml conical flask, and poured into a dish, where it was solidified, thereby obtaining a plate medium containing the inventive compound at 50 mg/L and 5 mg/L. On the other hand, a subject microorganism previously cultured on a plate medium was cut out using a cork borer whose diameter was 4 mm, and inoculated to the test compound-containing plate medium described above. […] The growth degree of the microorganism on the test compound-containing plate medium thus observed was compared with the growth degree of the microorganism in the untreated group, and % mycelial growth inhibition was calculated by the following equation. R=100(dc−dt)/dc wherein R=% mycelial extension inhibition, dc=flora diameter in untreated plate, dt=flora diameter in treated plate. The results obtained as described above were evaluated as one of the 5 grades according to the following criteria. […] Wheat Septoria nodorum blotch (Phaeosphaeria nodorum) P.n

The next experiment relates to Penicillium sp. The experiment can be described thus: Plate medium assay, industrial material deteriorating microorganism, Penicillium (Experimental Example 5). To be noted: treatment at 50 mg/l, PDA plate medium, read-out: growth inhibition grade. How it is done:
(§1) In this Experimental Example, the fungicidal effects of the inventive compounds on various phytopathogenic fungi for plants and hazardous microorganism for industrial materials were examined by the methods described below. Each inventive compound was dissolved in 2 ml of dimethyl sulfoxide. 0.6 ml of this solution was added to 60 nil of a PDA medium (potato dextrose agar medium) at about 60 degrees C., which was mixed thoroughly in a 100-ml conical flask, and poured into a dish, where it was solidified, thereby obtaining a plate medium containing the inventive compound at 50 mg/L and 5 mg/L. On the other hand, a subject microorganism previously cultured on a plate medium was cut out using a cork borer whose diameter was 4 mm, and inoculated to the test compound-containing plate medium described above. […] The growth degree of the microorganism on the test compound-containing plate medium thus observed was compared with the growth degree of the microorganism in the untreated group, and % mycelial growth inhibition was calculated by the following equation. R=100(dc-dt)/dc wherein R=% mycelial extension inhibition, dc=flora diameter in untreated plate, dt=flora diameter in treated plate. The results obtained as described above were evaluated as one of the 5 grades according to the following criteria.

The test system of the next experiment is Pyricularia oryzae. Briefly: microbe, parasite or virus in culture. To be noted: Pyricularia oryzae.
The subject of the next experiment is Fusarium oxysporum. The experiment can be described thus: Plate medium fungicidal assay, cucumber fusarium wilt F.c (Experimental Example 5). To be noted: Fusarium oxysporum. How it is done: as §1, with “R=100(dc−dt)/dc” for “R=100(dc-dt)/dc”, “criteria. […] Cucumber fusarium wilt (Fusarium oxysporum) F.c” for “criteria.”
The test system of another experiment is Ustilago nuda. The experiment can be described thus: Plate medium fungicidal assay, barley loose smut U.n (Experimental Example 5). To be noted: Ustilago nuda. How it is done: as §1, with “R=100(dc−dt)/dc” for “R=100(dc-dt)/dc”, “criteria. […] Barley loose smut (Ustilago nuda) U.n” for “criteria.”
The next experiment concerns Alternaria alternata. The experiment can be described thus: Plate medium fungicidal assay, Alternaria blotch A.m (Experimental Example 5). The note with it: Alternaria alternata. How it is done:
as §1, with “R=100(dc−dt)/dc” for “R=100(dc-dt)/dc”, “criteria. […] Alternaria blotch (Alternaria alternata) A.m” for “criteria.”

For another experiment, the system named is Mucor sp. The experiment can be described thus: Plate medium assay, industrial material deteriorating microorganism, Mucor (Experimental Example 5). To be noted: treatment at 50 mg/l, PDA plate medium, read-out: growth inhibition grade. How it is done: as §1
[1] abbreviates: plate medium, 5 mg/L, read-out: growth inhibition grade P.n.
Setting [2] is: plate medium, 50 mg/L, read-out: growth inhibition grade P.n.
Where [3] appears, read: read-out: growth inhibition grade P.o.
Where [4] appears, read: plate medium, 5 mg/L, read-out: growth inhibition grade F.c.
Where [5] appears, read: plate medium, 50 mg/L, read-out: growth inhibition grade F.c.
[6] abbreviates: plate medium, 5 mg/L, read-out: growth inhibition grade U.n.
Setting [7] is: plate medium, 50 mg/L, read-out: growth inhibition grade U.n.
[8] abbreviates: plate medium, 5 mg/L, read-out: growth inhibition grade A.m.
Where [9] appears, read: plate medium, 50 mg/L, read-out: growth inhibition grade A.m.
[10] abbreviates: read-out: Growth inhibition grade, P.o.

Consider `C[C@]1(CCl)CC[C@@H](Cc2ccc(Cl)cc2)[C@]1(O)Cn1ccnc1` (racemic) [Compound I-244, (1RS,2SR,5SR)-5-(4-chlorobenzyl)-2-chloromethyl-2-methyl-1-imidazol-1-ylmethylcyclopentanol], for which the inhibition at 5 µg/mL with Phaeosphaeria nodorum (setting [1]), in the experiment with Pyricularia oryzae (setting [3]), in the experiment with Fusarium oxysporum (setting [4]), with Ustilago nuda (setting [6]) and in the experiment on Alternaria alternata (setting [8]) was greater than 80% throughout. The inhibition at 50 µg/mL with Phaeosphaeria nodorum (setting [2]) was greater than 80%; in the experiment with Penicillium sp., 60 to 80%; in the experiment on Pyricularia oryzae (setting [3]), greater than 80%; in the experiment on Fusarium oxysporum (setting [5]), greater than 80%; with Ustilago nuda (setting [7]) it was greater than 80%; with Alternaria alternata (setting [9]) it was greater than 80%. In addition, the inhibition at 50 µg/mL in the experiment with Mucor sp. was in the range of 60 to 80%.

For `C[C@]1(CBr)CC[C@@H](Cc2ccccc2)[C@]1(O)Cn1cncn1` (racemic) [Compound I-602, (1RS,2SR,5SR)-2-bromomethyl-5-benzyl-2-methyl-1-(1H-1,2,4-triazol-1-ylmethyl)cyclopentanol], the inhibition at 5 µg/mL with Phaeosphaeria nodorum (setting [1]) was 40 to 60%; in the experiment with Pyricularia oryzae (setting [3]), greater than 80%; with Fusarium oxysporum (setting [4]) it was greater than 80%; in the experiment with Ustilago nuda (setting [6]), 60 to 80%; in the experiment on Alternaria alternata (setting [8]), 60 to 80%. In addition, the inhibition at 50 µg/mL in the experiment with Phaeosphaeria nodorum (setting [2]) is greater than 80%; with Penicillium sp., 60 to 80%; in the experiment with Pyricularia oryzae (setting [3]), greater than 80%; in the experiment with Fusarium oxysporum (setting [5]) it was greater than 80%; in the experiment with Ustilago nuda (setting [7]), greater than 80%; in the experiment on Alternaria alternata (setting [9]), greater than 80%. For the same compound, in the experiment with Mucor sp., the inhibition at 50 µg/mL lay within 60 to 80%.

For `C[C@]1(CCl)CC[C@H](Cc2ccc(Cl)cc2)[C@]1(O)Cn1cncn1` (racemic) [Compound I-301, (1RS,2SR,5RS)-5-(4-chlorobenzyl)-2-chloromethyl-2-methyl-1-[1,2,4]triazol-1-ylmethylcyclopentanol], the inhibition at 5 µg/mL with Phaeosphaeria nodorum (setting [1]), in the experiment on Pyricularia oryzae (setting [3]), with Fusarium oxysporum (setting [4]), in the experiment with Ustilago nuda (setting [6]) and in the experiment with Alternaria alternata (setting [8]) was greater than 80% each time. The inhibition at 50 µg/mL was greater than 80% with Phaeosphaeria nodorum (setting [2]); 60 to 80% in the experiment with Penicillium sp.; greater than 80% in the experiment with Pyricularia oryzae (setting [3]); greater than 80% in the experiment with Fusarium oxysporum (setting [5]); greater than 80% in the experiment with Ustilago nuda (setting [7]); greater than 80% in the experiment with Alternaria alternata (setting [9]). In addition, in the experiment on Mucor sp., the inhibition at 50 µg/mL is 60 to 80%.

`C[C@]1(CCl)CC[C@@H](Cc2ccc(F)cc2)[C@]1(O)Cn1cncn1` (racemic) [Compound I-77, (1RS,2SR,5SR)-2-chloromethyl-5-(4-fluorobenzyl)-2-methyl-1-(1H-1,2,4-triazol-1-ylmethyl)cyclopentanol]: the inhibition at 5 µg/mL was greater than 80% in the experiment on Phaeosphaeria nodorum (plate medium containing compound at 5 mg/L, read-out: Growth inhibition grade, P.n); greater than 80% in the experiment with Phaeosphaeria nodorum (setting [1]); greater than 80% with Pyricularia oryzae (setting [10]); greater than 80% with Pyricularia oryzae (setting [3]); greater than 80% with Fusarium oxysporum (plate medium containing compound at 5 mg/L, read-out: Growth inhibition grade, F.c); greater than 80% in the experiment on Fusarium oxysporum (setting [4]). For the same compound, the inhibition at 5 µg/mL with Ustilago nuda (plate medium containing compound at 5 mg/L, read-out: Growth inhibition grade, U.n) was greater than 80%; in the experiment on Ustilago nuda (setting [6]), greater than 80%; in the experiment with Alternaria alternata (plate medium containing compound at 5 mg/L, read-out: Growth inhibition grade, A.m), greater than 80%; in the experiment on Alternaria alternata (setting [8]) it was greater than 80%. Moreover, the inhibition at 50 µg/mL in the experiment on Phaeosphaeria nodorum (plate medium containing compound at 50 mg/L, read-out: Growth inhibition grade, P.n) was greater than 80%; with Phaeosphaeria nodorum (setting [2]) it was greater than 80%; in the experiment with Penicillium sp., 60 to 80%; in the experiment with Pyricularia oryzae (setting [10]) it was greater than 80%; with Pyricularia oryzae (setting [3]), greater than 80%; with Fusarium oxysporum (plate medium containing compound at 50 mg/L, read-out: Growth inhibition grade, F.c), greater than 80%. In addition, the inhibition at 50 µg/mL with Fusarium oxysporum (setting [5]) was greater than 80%; with Ustilago nuda (plate medium containing compound at 50 mg/L, read-out: Growth inhibition grade, U.n), greater than 80%; in the experiment on Ustilago nuda (setting [7]), greater than 80%; in the experiment on Alternaria alternata (plate medium containing compound at 50 mg/L, read-out: Growth inhibition grade, A.m) it was greater than 80%; in the experiment on Alternaria alternata (setting [9]), greater than 80%; in the experiment on Mucor sp. it was 60 to 80%.

With `O[C@]1(Cn2cncn2)[C@@H](Cc2ccc(Cl)cc2)CC[C@@H]1C(F)(F)F` (racemic) [Compound I-365, (1RS,2SR,5RS)-5-(4-chlorobenzyl)-2-trifluoromethyl-1-(1H-1,2,4-triazol-1-ylmethyl)cyclopentanol], the inhibition at 5 µg/mL was 40 to 60% in the experiment on Phaeosphaeria nodorum (setting [1]); less than 20% with Pyricularia oryzae (setting [3]); 20 to 40% with Fusarium oxysporum (setting [4]); 20 to 40% with Ustilago nuda (setting [6]); 20 to 40% in the experiment on Alternaria alternata (setting [8]). For the same compound, the inhibition at 50 µg/mL is greater than 80% in the experiment on Phaeosphaeria nodorum (setting [2]); 60 to 80% with Penicillium sp.; greater than 80% in the experiment with Pyricularia oryzae (setting [3]); greater than 80% in the experiment with Fusarium oxysporum (setting [5]); greater than 80% in the experiment on Ustilago nuda (setting [7]); greater than 80% with Alternaria alternata (setting [9]). In addition, the inhibition at 50 µg/mL in the experiment on Mucor sp. is 60 to 80%.
